Reference: patent US20130052162A1, “BOOSTING IMMUNE DEFENSE BY UPREGULATING CCAAT/ENHANCER BINDING PROTEIN EPSILON” (CEDARS-SINAI MEDICAL CENTER, priority 2010, published 2013)
“And” between values parts separate entries of the source, which are not always exact repeats. Equal values may be shown once. “Also recorded” adds a separate entry of the source.

Experiments:
[1] = system: P. aeruginosa; assay: Human peripheral whole blood killing assay, P. aeruginosa; type: cell-based; conditions: NAM-pretreated human blood
Protocol: This well described phagocytic survival assay has been previously reported^42. Bacteria was pelleted, washed twice, diluted to the specified inoculum in 25 μl PBS (without Ca^2+ and Mg^2+), and immediately mixed with 75 μl of freshly drawn human or murine peripheral whole blood in sterile heparinized 2 mL round-bottom Eppendorf tubes. When required, murine plasma was obtained by centrifugation of heparinized whole blood at 2000×g for 15 min at RT. Reactions (performed in minimum in triplicate) were incubated at 37° C. for 1-3 h on a rotary shaker, at which time ten-fold serial dilutions were plated on THA for enumeration of surviving CFU.
When required, freshly drawn human or murine peripheral blood was pretreated with NAM (˜0.1 mM or ˜10 mM) or PBS (without Ca^2+ and Mg^2+), prior to inoculation with bacteria.
Participants in the inventors' study included 15 healthy humans with a negative history of infection or antibiotic treatments in the prior 4 weeks. Peripheral blood was collected from individuals in a fasting condition. Polymorph-prep (Axis-Shield, Oslo, Norway) was used for the isolation of PMNs according to the manufacturer's protocol.

[2] = system: CEBPE promoter region; assay: ChIP: histone H3 acetylation at CEBPE promoter in human PMNs from NAM-treated blood; type: cell-based; conditions: blood treated with 1 mM NAM, 12 h
Protocol: ChIP assay kit (Upstate Biotechnology, Lake Placid, N.Y.) was used, and chromatin was prepared for IP as instructed by the manufacturer. The sonicated chromatin was immunoprecipitated with either 5 μg of anti-acetylated histone H3 antibody or normal rabbit IgG antibody as negative control (Upstate Biotechnology). Immunoprecipitated DNA was subsequently analyzed by PCR using primers specific for the CEBPE promoter region; input chromatin was analyzed for β-actin mRNA as a positive control. The optimal reaction conditions for PCR were determined for each primer pair. Primers were denatured at 95° C. for 1 min and annealed at 60° C. for 1 min, followed by elongation at 72° C. for 1 min; each product was amplified 35 cycles. PCR products were analyzed by 2.5% agarose/ethidium bromide gel electrophoresis. […] The primers used for ChIP analysis were: human CEBPE 5′-GCTTTGGCCAAGCCCAGGGA-3′ (forward) (SEQ ID NO: 9), 5′-TGCTGGGCTCCACCTACCCC-3′ (reverse) (SEQ ID NO: 10); human β-actin: 5′-CTCCTCGGGAGCCACACGCA-3′ (forward) (SEQ ID NO: 1), 5′-TAGGGGAGCTGGCTGGGTGG-3′ (reverse) (SEQ ID NO: 12); murine CEBPE: 5′-TGAGGCTGCAGCTTGCCTGG-3′ (forward) (SEQ ID NO: 13), 5′-ACCAAGCTACCCCTGGCCCT-3′ (reverse) (SEQ ID NO: 14), murine β-actin: 5′-ACCTGTTACTTTGGGAGTGGCAAGC-3′ (forward) (SEQ ID NO: 15), 5′-GTCGTCCCAGTTGCTAACAATGCC-3′ (reverse) (SEQ ID NO: 16). […]

[3] = human trials, patients undergoing radiotherapy; cited from earlier work
[4] = Ex vivo hematological study (CBC) of human donor blood; type: cell-based; conditions: 1 mM NAM ex vivo
Protocol: Blood from human donors (no antibiotics within the prior 2 weeks, no immune-boosting supplements, and otherwise healthy) was collected in ETDA tubes. CBC was performed on each blood sample at time zero. Each blood sample was then treated ex vivo with NAM (1 mM) or PBS (control) for 24 h in 6-well non-treated plates at 37 C, 5% CO2 and 95%% humidity with gentle rocking. After 24 h of treatment, CBCs were performed on each blood sample. […] (Table 3)

[5] = system: S. aureus; assay: Murine peripheral whole blood killing assay; type: cell-based, mouse
[6] = system: CEBPE promoter region; assay: ChIP: histone H3 acetylation at CEBPE promoter in BMDM; type: cell-based, mouse; conditions: WT BMDM, 1 mM NAM, 6-12 h, vs untreated, densitometry
Protocol: ChIP assay kit (Upstate Biotechnology, Lake Placid, N.Y.) was used, and chromatin was prepared for IP as instructed by the manufacturer. The sonicated chromatin was immunoprecipitated with either 5 μg of anti-acetylated histone H3 antibody or normal rabbit IgG antibody as negative control (Upstate Biotechnology). Immunoprecipitated DNA was subsequently analyzed by PCR using primers specific for the CEBPE promoter region; input chromatin was analyzed for β-actin mRNA as a positive control. The optimal reaction conditions for PCR were determined for each primer pair. Primers were denatured at 95° C. for 1 min and annealed at 60° C. for 1 min, followed by elongation at 72° C. for 1 min; each product was amplified 35 cycles. PCR products were analyzed by 2.5% agarose/ethidium bromide gel electrophoresis. […] The primers used for ChIP analysis were: human CEBPE 5′-GCTTTGGCCAAGCCCAGGGA-3′ (forward) (SEQ ID NO: 9), 5′-TGCTGGGCTCCACCTACCCC-3′ (reverse) (SEQ ID NO: 10); human β-actin: 5′-CTCCTCGGGAGCCACACGCA-3′ (forward) (SEQ ID NO: 1), 5′-TAGGGGAGCTGGCTGGGTGG-3′ (reverse) (SEQ ID NO: 12); murine CEBPE: 5′-TGAGGCTGCAGCTTGCCTGG-3′ (forward) (SEQ ID NO: 13), 5′-ACCAAGCTACCCCTGGCCCT-3′ (reverse) (SEQ ID NO: 14), murine β-actin: 5′-ACCTGTTACTTTGGGAGTGGCAAGC-3′ (forward) (SEQ ID NO: 15), 5′-GTCGTCCCAGTTGCTAACAATGCC-3′ (reverse) (SEQ ID NO: 16).

[7] = system: S. aureus; assay: Murine systemic (i.p.) S. aureus infection; type: in vivo, mouse; conditions: 250 mg/kg i.p. daily from 24 h before infection, 48 h p.i.
Protocol: Following euthanization of mice on the specified day, infected skin lesion tissue was aseptically excised, and thoroughly homogenized and mixed in 1 mL of PBS as previously shown^43. Ten-fold serial dilutions of the homogenates were plated on THA for CFU determination. The spleen and both kidneys were aseptically removed from each animal and processed in the same way. When required, the appropriate homogenized suspensions (skin lesions) were centrifuged at 15,000 g for 10 min and supernatants stored at −80° C. for subsequent analysis by ELISA.
Mice were systemically infected by intraperitoneal (i.p.) injection of 1×10^7 CFU/mL S. aureus for 48 h. Following euthanasia, the spleen and both kidneys were removed for CFU determination.

[8] = system: S. aureus; assay: Human peripheral whole blood killing assay, S. aureus; type: cell-based
[9] = t = 24 h, individual human donors #1-5

SMILES: NC(=O)c1cccnc1 [NAM, Nicotinamide]
- P. aeruginosa CFU recovered / outcome, NAM- vs PBS-treated blood [1]: improved the outcome of infection; also recorded: enhances clearance
- increase in histone H3 acetylation at the CEBPE promoter [2]: 5 fold
- plasma concentration routinely achieved [3]: 1000 µM
- CBCs, NAM- vs PBS-treated and untreated blood ([4]; 24 h): No differences in CBCs
- ABS MONOS [4, 9]: 0.6 1000/UL and 0.5 1000/UL and 0.2 1000/UL and 0.1 1000/UL (2×)
- ABS POLYS [4, 9]: 5.4 1000/UL and 2.9 1000/UL and 5.2 1000/UL and 4.2 1000/UL and 4.3 1000/UL
- MONOS [4, 9]: 7% and 9% and 4% and 2% (2×)
- POLYS [4, 9]: 61% and 51% and 76% and 63% and 70%
- WBC COUNT [4, 9]: 8.9 1000/UL and 5.6 1000/UL and 6.9 1000/UL and 6.7 1000/UL and 6.1 1000/UL
- CFU recovered, NAM- vs PBS-treated blood ([5]; C/EBPε−/− blood, 1 mM NAM 24 h, 1 h and 3 h of infection): no impact; also recorded: not statistically different
- CFU recovered, NAM- vs PBS-treated blood ([5]; WT blood, 1 mM NAM 24 h, 1 h and 3 h of infection): Significantly less CFU
- enhanced killing of S. aureus vs PBS ([5]; WT blood, 1 mM NAM pretreatment 24 h): more than 3 log10
- CFU recovered, NAM- vs PBS-treated blood ([5]; WT blood, 1 mM NAM pretreatment for only 4 h): did not result in CFU differences
- increase in histone H3 acetylation at the CEBPE promoter [6]: 5 fold
- bacterial CFU recovered from spleens and kidneys vs PBS ([7]; C/EBPε−/− mice): no impact
- lower S. aureus CFU in spleens and kidneys vs PBS ([7]; WT mice): approximately 2 logic
- CFU recovered, NAM- vs PBS-treated blood ([8]; NAM 1 mM or 10 mM 24 h, 1 h and 3 h of infection): Significantly less CFU
- reduction of S. aureus survival in whole blood vs PBS ([8]; NAM 1 mM or 10 mM 24 h pretreatment, 3 h p.i.): 2-3 log10
